Source: US11802107B2, “Compounds and methods of use” (Signum Biosciences, Inc., priority 2017, dated 2023)

How the values were obtained:
TSLP = assay: Calcipotriol-induced TSLP in vivo; details: CD1 mice, calcipotriol 4 nmol/ear, 24 hours
From the text: CD1 mice were topically exposed to 4 nmol/ear Calcipotriol. Five minutes after challenge compounds were applied. Twenty-four hours later, protein samples were extracted from ear skin biopsies and analyzed for TSLP levels by ELISA method. Vehicle for compounds were 60:40 EtOH:H2O (Compound C) or 1:1 EtOH:Acetone (AN2728). Data represents average±S.E. of a representative set from 2 independent experiments (n=6 mice per group). *p value<0.05; **p value≤0.01 by Student t test compared to Calcipotriol+vehicle-only treated animals. ns equals not significant.

[1] = tested on: subjects with mild to moderate acne; assay: 8-week clinical study in subjects with mild to moderate acne; format: in vivo; design: scale not given here; details: E 1% w/w, BPO 3% w/w, human
From the text: Subjects used the assigned product at home for 8 weeks. Subjects returned post baseline at week 2, 4 and 8. At each visit subjects underwent expert clinical grading and test site photography. […] The severity of acne signs and symptoms on the faces of >18 yo subjects were clinically assessed by IGA scale during an 8-week Study period. In addition, UV light mode was utilized to observe porphyrins fluorescence (orange-red dots).

Row | SMILES | AVG - TSLP (TSLP; topical dose 4.0 μg/ear) | TSLP % inhb (TSLP; topical dose 4.0 μg/ear) | AVG - TSLP (TSLP; topical dose 40.0 μg/ear) | TSLP % inhb (TSLP; topical dose 40.0 μg/ear) | AVG - TSLP (TSLP; topical dose 400.0 μg/ear) | TSLP % inhb (TSLP; topical dose 400.0 μg/ear) | Investigator Global Assesment (IGA) Scale ([1]; 2 week) | Investigator Global Assesment (IGA) Scale ([1]; 4 week) | Investigator Global Assesment (IGA) Scale ([1]; 8 week) | Investigator Global Assesment (IGA) Scale ([1]; Baseline)
1 | N#Cc1ccc(Oc2ccc3c(c2)COB3O)cc1 [AN2728, reference compound] | 2495.1 pg/6 mm biopsy | 51% | 2235.3 pg/6 mm biopsy | 57% | 352.1 pg/6 mm biopsy | 102% |  |  |  | 
2 | C/C(=C\CSC[C@H](NC(=O)N(C)CC(=O)O)C(=O)O)CCCC(C)CCCC(C)CCCC(C)C (stereo partly drawn) [Compound C, (2R)-2-{[(carboxymethyl)(methyl)carbamoyl]amino}-3-{[(2E)-3,7,11,15-tetramethylhexadec-2-en-1-yl]sulfanyl}propanoic acid] | 2753.6 pg/6 mm biopsy | 15% | 1156.1 pg/6 mm biopsy | 74% | 759.9 pg/6 mm biopsy | 88% |  |  |  | 
3 | C/C(=C\CSC[C@H](NC(=O)N1CCC[C@H]1C(=O)O)C(=O)O)CCCC(C)CCCC(C)CCCC(C)C (stereo partly shown) [Compound E] |  |  |  |  |  |  | 2 | 1 | 0 | 3
